The nature of this data set: Compatibility test of atorvastatin calcium with excipients (water added, sealed vial, 50° C., two weeks; impurities by HPLC, physical changes). It is filed as physicochemical. Conditions: for Compatibility: 0.2 ml water added, sealed vial, two weeks. The procedure: In order for an excipient to be used with an embodiment of the formulation of the present invention, it was required to perform acceptably during the compatibility testing. The acceptance criteria for the compatibility test were as follows. […] Physical stability was determined by examining the mixture's appearance in terms of discoloration, liquefaction, dryness and odor or gas.
A granulate or dry mix of the drug substance and each of the excipients requested to the expected ratio in the possible final formulas was prepared. The granulate was prepared manually with a mortar and pestle. The active ingredient is mixed with the ingredient(s) to be tested, then granulated in a mortar and pestle using the aqueous granulation solution. The wet granulate was then dried in an oven at 60° C. down to LOD<5% and then milled.
The compatibility test was performed as follows. Each mixture (blend or granulate) was transferred to a vial, 0.2 ml of purified water was added, and the mixtures were mixed with a Pasteur pipette, which was then broken and inserted in the vial in order to avoid any loss of material.
The vials were then sealed and stored at a temperature of 50° C. for two weeks.
After two weeks the vials were removed, examined for physical changes and were tested for impurities according to the HPLC method (RD 2000-1) as described in greater detail below.
75 ml of diluent was added and the samples were shaken for 30 min, and then diluted to volume with diluent.
5 ml of the above mentioned solution was transferred and diluted in a 10 ml volumetric flask. The diluent for all experiments was water:methanol mixture.
Part of each dry granulate was placed in a 34 ml Securitainer® (a regular secure medicine bottle made from high density polyethylene; available from Jaycare Ltd in the United Kingdom) and placed in incubator at 40° C./75% RH for a 6 month stability study. Next, separate samples containing 1 g of each dry granulate were mixed with 200 μl water (LOD of the blend 16.67%), closed in a glass vial and stored at 50° C. for a 2 week compatibility test.
Results of those compatibility and stability studies are summarized in table 4; a more detailed description of the same results is provided in table 5 below. Stability or compatibility criteria were defined as: maximum known impurity <0.5% (preferably comprising one or both of the Desfluoro (Desfl.) or lactone (Lact.) degradation forms); maximum unknown impurity <0.5%, preferably <0.3%; total impurities <1.5%.
One gram of each blend was mixed with 200 μl purified water (LOD of the blend was 16.67%), placed in a closed glass vial and placed for 2 weeks in an incubator at 50° C. for a compatibility test.

Setting [1] is: amorphous atorvastatin calcium, no excipient, 2 weeks, 16.7% LOD.

Turning to `CC(C)c1c(C(=O)Nc2ccccc2)c(-c2ccccc2)c(-c2ccc(F)cc2)n1CC[C@@H](O)C[C@@H](O)CC(=O)[O-].CC(C)c1c(C(=O)Nc2ccccc2)c(-c2ccccc2)c(-c2ccc(F)cc2)n1CC[C@@H](O)C[C@@H](O)CC(=O)[O-].[Ca+2]` [Reference (no excipient added)], under setting [1], the Desfluoro stood at 0.12%, the Lactone is 0.04%, the Max unknown impurity is 0.05% and the “Total Impurities” value was found to be 0.33%.

Take `CC(C)c1c(C(=O)Nc2ccccc2)c(-c2ccccc2)c(-c2ccc(F)cc2)n1CC[C@@H](O)C[C@@H](O)CC(=O)[O-].CC(C)c1c(C(=O)Nc2ccccc2)c(-c2ccccc2)c(-c2ccc(F)cc2)n1CC[C@@H](O)C[C@@H](O)CC(=O)[O-].[Ca+2]` [Vial 1]: the Compatibility entry is “Stable” (amorphous Atorvastatin Ca dry mixes) and “Stable” (crystalline form VI Atorvastatin Ca granulates).

For the origin of these results see patent US20090208539A1, “STABLE ATORVASTATIN FORMULATIONS” (priority 2004, published 2009).
